Reference: patent US20090324708A1, “COMPOUND HAVING INHIBITORY ACTIVITY ON A RHO-GTPASE CELL PROTEIN, A PROCESS FOR OBTAINING THE SAME, PHARMACEUTICAL COMPOSITIONS COMPRISING THEREOF AND A METHOD FOR THE TREATMENT OF RHO-GTPASE CELL PROTEIN-MEDIATED CONDITION” (Universidad Nacional De Quilmes, priority 2006, published 2009)
pIC50: −log10 of the molar value. Marks after values point to notes of the source that are not given here.

What was measured:
Type in all cases: cell-based, mouse
[1] = system: breast carcinoma F3II cells; assay: Antiproliferative effect on growing F3II cells (toluidine test); settings: 10% fetal bovine serum
From the text: The antiproliferative effect of the above mentioned compounds on breast carcinoma F3II cells is disclosed in the present example. The synthesized compounds are purine nucleoside derivatives which present chemical modifications in either the ribose and/or in the base. These modifications mainly consisted in acetylations of positions 2′-3′ of the ribose, varying the number of carbon atoms of the acyl substituents in position 5′. […] The cell growth was estimated by toluidine test, for which the cell monolayers were fixed with formalin (Formol 10%) and stained with toluidine blue 0.5%. Subsequently, the stained cells were thoroughly washed with PBS and solubilized with 1% SDS. Finally, the number of cells was estimated by measuring the absorbance values at 595 nm. The IC50 values of the compounds Nucl 1, Nucl 4 and Nucl 5, both for cells in the exponential growth phase and for quiescent cells, are depicted in Table 2.

[2] = system: breast carcinoma F3II cells; assay: Effect on quiescent F3II cells / cytotoxicity (toluidine staining and MTT assay); settings: absence of FBS; for cytotoxic effect: 100 μM, 24 hours, semiconfluent monolayers, toluidine and MTT assay; for pIC50: Quiescent Cells, F3II, 24 hs
Procedure: The antiproliferative effect of the above mentioned compounds on breast carcinoma F3II cells is disclosed in the present example. The synthesized compounds are purine nucleoside derivatives which present chemical modifications in either the ribose and/or in the base. These modifications mainly consisted in acetylations of positions 2′-3′ of the ribose, varying the number of carbon atoms of the acyl substituents in position 5′. The cells were treated for 72 hours in the presence of fetal bovine serum 10% with different doses of the compounds, with the aim of determining the inhibitory concentration 50% (IC50). The cell growth was estimated by toluidine test, for which the cell monolayers were fixed with formalin (Formol 10%) and stained with toluidine blue 0.5%. Subsequently, the stained cells were thoroughly washed with PBS and solubilized with 1% SDS. Finally, the number of cells was estimated by measuring the absorbance values at 595 nm. The IC50 values of the compounds Nucl 1, Nucl 4 and Nucl 5, both for cells in the exponential growth phase and for quiescent cells, are depicted in Table 2.
In addition, the effect of the analogs showing antiproliferative effect on quiescent cells, was studied in order to discriminate between an antitumoral effect and an unspecific cytotoxic effect. For this purpose, the semiconfluent cell monolayers were incubated for 24 hours in the absence of FBS with the analogs Nucl 1, Nucl 4 and Nucl 5, at a concentration of 100 μM. Subsequently, the cells were fixed and stained with toluidine in order to determine the number of cells. Simultaneously, the cytotoxic effect was determined by the MTT assay.

[3] = system: breast carcinoma F3II cells; assay: Monolayer wound assay of tumor cell migration; settings: for No of migrating cells: overnight, MEM with 10% FBS
Procedure: The present assay consists in the determination of the antimigration effect of the selected compounds on the breast carcinoma cells migration. Cell motility is a key process in the invasion and tumor metastasis processes and it is closely regulated by the Rho-GTPases family, particularly by Rac.
Tumor cell migration in vitro was measured by the “monolayer wound” assay described previously (Alonso D F, Farias E F, Urtreger A, Ladeda V, Vidal M C and Bal de Kier Joffé E: Characterization of F3II, a mammary sarcomatoid carcinoma cell line originated from a mouse adenocarcinoma. J. Surgh. Oncol 1996, 62: 288-297). 0.5 mm width lines were made in confluent monolayers. After washing with PBS, the tumor cells were incubated overnight in MEM with 10% FBS and the monolayers were fixed and stained with methylene blue. The number of cells that moved along the free space were counted by using a 0.36 mm^2 graded grid, using a magnification of 100×, in 3 independent fields per each line.
Doses from 1 to 50 μM of the compounds were assessed, thereby finding a saturation of the antimigration effect in the 3 compounds studied, starting from 10 μM, obtaining an approximate inhibition of 30 to 50% respectively.

pIC50 ([1]; 48 hs, read-out: IC50 48 hs) | pIC50 ([1]; 72 hs, read-out: IC50 72 hs) | pIC50 ([1]; Mus musculus, 48 hs, read-out: IC50 48 hs) | pIC50 ([1]; Mus musculus, 72 hs, read-out: IC50 72 hs) | Compound | cytotoxic effect [2] | pIC50 [2] | Inhibition % (cell migration) ([3]; 10 μM) [%] | No of migrating cells ([3]; 10 μM) | pIC50 ([2]; Mus musculus) | inhibition at 10 µM ([3]; Mus musculus) [%]
4.22 | 4.25 |  |  | CC(=O)OC[C@H]1O[C@@H](n2cnc3c(Cl)ncnc32)[C@H](OC(C)=O)[C@@H]1OC(C)=O [Nucl 4, 6-chloro-2′,3′,5′-tri-O-acetyl-purine riboside] | In none of the cases a cytotoxic effect was observed | < 4.00 | 40.6 | 85.5** |  | 
 |  | 4.59 | 4.17 | CC(=O)OC[C@H]1O[C@@H](n2cnc3c(=O)[nH]c(N)nc32)[C@H](OC(C)=O)[C@@H]1OC(C)=O [Nucl 1, 2′,3′,5′-tri-O-acetyl-guanosine] | In none of the cases a cytotoxic effect was observed |  |  | 97.7* | < 4.00 | 32.2
